Laboratory results as given in patent US9453026B2, “ACC inhibitors and uses thereof” (Gilead Apollo, Inc., priority 2011, dated 2016).
Read-outs that look alike come from different tables or passages of the source.

What was measured:
ACC1 = ACC1 (Homo sapiens, UniProt Q13085); test: In vitro ACC1 inhibition assay (ADP-Glo); type: biochemical
Procedure: An exemplary procedure for the in vitro ACC inhibition assay, which can be used to determine the inhibitory action of compounds of the invention toward either ACC1 or ACC2, follows. The ADP-Glo™ Kinase Assay kit from Promega was used. The ADP-Glo™ Kinase Assay is a luminescent ADP detection assay to measure enzymatic activity by quantifying the amount of ADP produced during an enzyme reaction. The assay is performed in two steps; first, after the enzyme reaction, an equal volume of ADP-Glo™ Reagent is added to terminate the reaction and deplete the remaining ATP. Second, the Kinase Detection Reagent is added to simultaneously convert ADP to ATP and allow the newly synthesized ATP to be measured using a luciferase/luciferin reaction. Luminescence can be correlated to ADP concentrations by using an ATP-to-ADP conversion curve. The detailed procedure is as follows. 50 μL of the compound being tested (600 uM in DMSO) was added to a 384-well dilution plate. The compound was diluted 1:3 in succession in DMSO for each row for 11 wells. 0.5 μL ACC2 working solution was added to 384-well white Optiplate assay plate. 0.5 μL diluted compound solution in each column from step 2 to assay plate, each row containing 2 replicates. […] The plates were incubated at room temperature for 15 minutes. 5 μL substrate working solution was added to each well to initiate reaction. […] Plates were incubated at room temperature for 60 minutes. 10 μL ADP glo reagent was added. Plates were incubated at room temperature for 40 minutes. 20 μL kinase detection reagent was added.
Data for each concentration, as well as the positive and negative controls were averaged, and the standard deviation calculated. Percent inhibition was calculated by the formula: 100× (average negative control−compound)/(average negative control−average positive control). The IC50 for each compound was calculated by fitting the data with a non-linear regression equation: Y=Bottom+(Top-Bottom)/(1+10^((Log IC50−X)*HillSlope)), where X is the log of compound concentration and Y is percent inhibition.
The compound numbers correspond to the compound numbers in Table 1.

ACC2 = ACC2 (Homo sapiens, UniProt O00763); test: In vitro ACC2 inhibition assay (ADP-Glo); type: biochemical
How it was run: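 Enzyme (human ACC1 or ACC2) and compound, serially diluted 1:3 over 11 points from a 600 uM DMSO stock, were preincubated 15 min before substrate addition.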

Chain of ACC2 (O00763 whole entry, species assumed): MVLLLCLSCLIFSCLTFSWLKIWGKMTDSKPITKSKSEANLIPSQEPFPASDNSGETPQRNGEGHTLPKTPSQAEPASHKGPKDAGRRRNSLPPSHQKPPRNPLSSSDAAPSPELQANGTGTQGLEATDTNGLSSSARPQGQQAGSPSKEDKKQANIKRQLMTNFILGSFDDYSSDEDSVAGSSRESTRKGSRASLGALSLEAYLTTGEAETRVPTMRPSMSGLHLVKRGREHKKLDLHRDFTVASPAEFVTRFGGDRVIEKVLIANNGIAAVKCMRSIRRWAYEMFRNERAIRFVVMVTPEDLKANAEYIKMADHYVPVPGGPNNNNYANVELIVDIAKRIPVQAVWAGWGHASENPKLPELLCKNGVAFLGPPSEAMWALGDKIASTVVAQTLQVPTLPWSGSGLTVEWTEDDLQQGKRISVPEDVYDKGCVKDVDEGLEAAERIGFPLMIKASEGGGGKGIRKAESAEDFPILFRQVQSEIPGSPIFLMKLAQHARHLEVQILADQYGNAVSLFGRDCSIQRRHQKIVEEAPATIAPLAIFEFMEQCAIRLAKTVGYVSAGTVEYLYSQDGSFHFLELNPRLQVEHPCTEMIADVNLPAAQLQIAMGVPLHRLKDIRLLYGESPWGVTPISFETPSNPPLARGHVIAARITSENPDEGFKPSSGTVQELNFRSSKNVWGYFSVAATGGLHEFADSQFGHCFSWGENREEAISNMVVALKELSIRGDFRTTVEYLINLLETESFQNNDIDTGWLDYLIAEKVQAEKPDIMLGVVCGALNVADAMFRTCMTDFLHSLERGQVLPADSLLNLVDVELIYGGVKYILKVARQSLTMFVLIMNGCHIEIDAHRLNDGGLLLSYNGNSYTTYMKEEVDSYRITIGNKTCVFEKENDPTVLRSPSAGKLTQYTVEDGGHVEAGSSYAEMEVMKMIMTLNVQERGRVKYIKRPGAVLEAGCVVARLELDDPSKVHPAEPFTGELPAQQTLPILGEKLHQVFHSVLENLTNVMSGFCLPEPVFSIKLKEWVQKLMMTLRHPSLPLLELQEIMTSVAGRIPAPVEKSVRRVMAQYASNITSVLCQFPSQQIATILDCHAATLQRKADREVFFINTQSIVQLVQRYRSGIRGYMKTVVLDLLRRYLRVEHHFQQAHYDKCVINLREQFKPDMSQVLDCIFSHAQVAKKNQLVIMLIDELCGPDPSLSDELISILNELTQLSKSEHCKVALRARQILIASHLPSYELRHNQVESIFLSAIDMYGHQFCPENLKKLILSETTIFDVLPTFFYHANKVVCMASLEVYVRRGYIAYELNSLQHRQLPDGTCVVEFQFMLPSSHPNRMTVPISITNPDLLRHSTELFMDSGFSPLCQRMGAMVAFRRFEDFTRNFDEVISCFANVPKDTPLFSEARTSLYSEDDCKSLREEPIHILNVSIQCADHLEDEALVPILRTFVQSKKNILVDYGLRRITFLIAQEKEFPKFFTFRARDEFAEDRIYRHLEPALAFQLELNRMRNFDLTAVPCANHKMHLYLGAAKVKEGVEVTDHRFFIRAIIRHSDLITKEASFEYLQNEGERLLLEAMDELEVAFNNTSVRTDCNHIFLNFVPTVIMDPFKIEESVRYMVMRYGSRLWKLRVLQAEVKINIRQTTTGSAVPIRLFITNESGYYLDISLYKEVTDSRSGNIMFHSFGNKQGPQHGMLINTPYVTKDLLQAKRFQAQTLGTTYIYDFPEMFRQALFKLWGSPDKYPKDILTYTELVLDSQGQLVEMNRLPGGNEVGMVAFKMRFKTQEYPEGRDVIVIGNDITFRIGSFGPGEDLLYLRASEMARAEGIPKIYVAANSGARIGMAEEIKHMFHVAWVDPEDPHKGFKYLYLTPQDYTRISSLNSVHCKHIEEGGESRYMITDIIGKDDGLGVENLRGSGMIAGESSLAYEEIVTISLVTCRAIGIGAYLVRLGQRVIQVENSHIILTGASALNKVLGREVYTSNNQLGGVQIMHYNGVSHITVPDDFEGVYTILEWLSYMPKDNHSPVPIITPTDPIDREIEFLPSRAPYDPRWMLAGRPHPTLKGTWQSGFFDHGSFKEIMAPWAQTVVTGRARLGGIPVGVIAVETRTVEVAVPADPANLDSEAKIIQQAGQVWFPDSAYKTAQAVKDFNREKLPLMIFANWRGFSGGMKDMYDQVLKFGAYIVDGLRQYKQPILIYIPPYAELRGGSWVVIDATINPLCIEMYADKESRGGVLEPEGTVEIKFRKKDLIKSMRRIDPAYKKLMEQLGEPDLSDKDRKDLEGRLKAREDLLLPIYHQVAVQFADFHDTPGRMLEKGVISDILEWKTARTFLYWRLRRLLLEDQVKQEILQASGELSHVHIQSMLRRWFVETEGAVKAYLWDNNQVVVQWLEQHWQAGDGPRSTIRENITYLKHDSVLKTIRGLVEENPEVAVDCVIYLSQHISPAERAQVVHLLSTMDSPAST

IC50 (ACC1; read-out: ACC1) [nM]	IC50 (ACC2; read-out: ACC2) [nM]	IC50 (ACC1) [nM]	IC50 (ACC2) [nM]	Structure (SMILES)
< 100	< 100	–	–	COc1ccccc1[C@H](Cn1c(=O)n(C(C)(C)C(=O)O)c(=O)c2c(C)c(-c3ncco3)sc21)OCCO [I-254, 2-[1-[(2R)-2-(2-hydroxyethoxy)-2-(2-methoxyphenyl)ethyl]-5-methyl-6-(1,3-oxazol-2-yl)-2,4-dioxo-1H,2H,3H,4H-thieno[2,3-d]pyrimidin-3-yl]-2-methylpropanoic acid]
< 100	< 100	–	–	COc1ccccc1[C@H](Cn1c(=O)n(C(C)(C)C(=O)N2CCCC2)c(=O)c2c(C)c(-c3ncco3)sc21)OC(C)C [I-238, 1-[(2R)-2-(2-methoxyphenyl)-2-(propan-2-yloxy)ethyl]-5-methyl-3-[2-methyl-1-oxo-1-(pyrrolidin-1-yl)propan-2-yl]-6-(1,3-oxazol-2-yl)-1H,2H,3H,4H-thieno[2,3-d]pyrimidine-2,4-dione]
< 100	< 1000	–	–	CCOc1ccccc1CCn1c(=O)n(C(C)(C)C(=O)O)c(=O)c2c(C)c(-c3ncco3)sc21 [I-135, 2-[1-[2-(2-ethoxyphenyl)ethyl]-5-methyl-6-(1,3-oxazol-2-yl)-2,4-dioxo-1H,2H,3H,4H-thieno[2,3-d]pyrimidin-3-yl]-2-methylpropanoic acid]
< 1000	< 1000	–	–	CCOC(=O)c1sc2c(c1C)c(=O)n(C(C)(C)C(=O)O)c(=O)n2C[C@H](OC)c1ccccc1 [I-110, 2-[6-(ethoxycarbonyl)-1-[(2R)-2-methoxy-2-phenylethyl]-5-methyl-2,4-dioxo-1H,2H,3H,4H-thieno[2,3-d]pyrimidin-3-yl]-2-methylpropanoic acid]
< 1000	< 1000	–	–	CCOC(=O)c1sc2c(c1C)c(=O)n(C(C)(C)C(=O)O)c(=O)n2C[C@H](OC(C)CC)c1ccccc1 (stereo in doubt) [I-131, 2-[1-[(2R)-2-[(2R)-butan-2-yloxy]-2-phenylethyl]-6-(ethoxycarbonyl)-5-methyl-2,4-dioxo-1H,2H,3H,4H-thieno[2,3-d]pyrimidin-3-yl]-2-methylpropanoic acid]
< 5000	< 5000	–	–	CCOC(=O)c1sc2c(c1C)c(=O)n(CCC(=O)O)c(=O)n2CCc1ccccc1 [I-46, 3-[6-(ethoxycarbonyl)-5-methyl-2,4-dioxo-1-(2-phenylethyl)-1H,2H,3H,4H-thieno[2,3-d]pyrimidin-3-yl]propanoic acid]
< 100	< 1000	–	–	CCc1ccccc1CCn1c(=O)n(C(C)(C)C(=O)O)c(=O)c2c(C)c(-c3ncco3)sc21 [I-133, 2-[1-[2-(2-ethylphenyl)ethyl]-5-methyl-6-(1,3-oxazol-2-yl)-2,4-dioxo-1H,2H,3H,4H-thieno[2,3-d]pyrimidin-3-yl]-2-methylpropanoic acid]
–	–	< 100	< 100	[2H]C([2H])([2H])Oc1ccccc1[C@H](Cn1c(=O)n(C(C)(C)C(=O)O)c(=O)c2c(C)c(-c3ncco3)sc21)OC1CCOCC1 [I-271, 2-[1-[(2R)-2-[2-(d3)methoxyphenyl]-2-(oxan-4-yloxy)ethyl]-5-methyl-6-(1,3-oxazol-2-yl)-2,4-dioxo-1H,2H,3H,4H-thieno[2,3-d]pyrimidin-3-yl]-2-methylpropanoic acid]
< 100	< 100	–	–	Cc1c(-c2ncco2)sc2c1c(=O)n(C(C)(C)C(=O)O)c(=O)n2C[C@H](OC1CCC(O)CC1)c1ccccc1 (stereo partly drawn) [I-164, 2-[1-[(2R)-2-[(4-hydroxycyclohexyl)oxy]-2-phenylethyl]-5-methyl-6-(1,3-oxazol-2-yl)-2,4-dioxo-1H,2H,3H,4H-thieno[2,3-d]pyrimidin-3-yl]-2-methylpropanoic acid]
< 100	< 100	–	–	COc1ccccc1[C@H](Cn1c(=O)n(CC(N)=O)c(=O)c2c(C)c(-c3ncco3)sc21)OC1CCOCC1 [I-288]
< 1000	< 1000	–	–	CCCc1ccccc1CCn1c(=O)n(C(C)(C)C(=O)O)c(=O)c2c(C)c(-c3ncco3)sc21 [I-147, 2-methyl-2-[5-methyl-6-(1,3-oxazol-2-yl)-2,4-dioxo-1-[2-(2-propylphenyl)ethyl]-1H,2H,3H,4H-thieno[2,3-d]pyrimidin-3-yl]propanoic acid]
< 100	< 100	–	–	CCc1ccccc1[C@H](Cn1c(=O)n(C(C)(C)C(=O)O)c(=O)c2c(C)c(-c3ncco3)sc21)OC(C)C [I-180, 2-[1-[(2R)-2-(2-ethylphenyl)-2-(propan-2-yloxy)ethyl]-5-methyl-6-(1,3-oxazol-2-yl)-2,4-dioxo-1H,2H,3H,4H-thieno[2,3-d]pyrimidin-3-yl]-2-methylpropanoic acid]
< 100	< 100	–	–	COc1ccccc1[C@H](Cn1c(=O)n(C(C)(C)C(=O)O)c(=O)c2c(C)c(-c3ncco3)sc21)O[C@H]1CC[C@H](O)CC1 [I-277, 2-[1-[(2R)-2-[(4-hydroxycyclohexyl)oxy]-2-(2-methoxyphenyl)ethyl]-5-methyl-6-(1,3-oxazol-2-yl)-2,4-dioxo-1H,2H,3H,4H-thieno[2,3-d]pyrimidin-3-yl]-2-methylpropanoic acid]
< 100	< 1000	–	–	Cc1c(-c2ncco2)sc2c1c(=O)n(C(C)(C)C(=O)O)c(=O)n2C[C@H](OC1CCCCC1)c1ccccc1 [I-140, 2-[1-[(2R)-2-(cyclohexyloxy)-2-phenylethyl]-5-methyl-6-(1,3-oxazol-2-yl)-2,4-dioxo-1H,2H,3H,4H-thieno[2,3-d]pyrimidin-3-yl]-2-methylpropanoic acid]
< 100	< 100	–	–	CCc1ccccc1[C@H](Cn1c(=O)n(C(C)(C)C(=O)O)c(=O)c2c(C)c(-c3ncco3)sc21)OC1CCOCC1 [I-249, 2-[1-[(2R)-2-(2-ethylphenyl)-2-(oxan-4-yloxy)ethyl]-5-methyl-6-(1,3-oxazol-2-yl)-2,4-dioxo-1H,2H,3H,4H-thieno[2,3-d]pyrimidin-3-yl]-2-methylpropanoic acid]
< 1000	< 1000	–	–	CCOC(=O)c1sc2c(c1C)c(=O)n(C(C)(C)C(N)=O)c(=O)n2C[C@H](OC(C)C)c1ccccc1 [I-115, ethyl 3-(1-carbamoyl-1-methylethyl)-5-methyl-2,4-dioxo-1-[(2R)-2-phenyl-2-(propan-2-yloxy)ethyl]-1H,2H,3H,4H-thieno[2,3-d]pyrimidine-6-carboxylate]
< 100	< 100	–	–	COc1ccccc1[C@H](Cn1c(=O)n(C(C)(C)C(=O)O)c(=O)c2c(C)c(-c3ncco3)sc21)OC[C@@H](C)O [I-258, 2-[1-[(2R)-2-[(2R)-2-hydroxypropoxy]-2-(2-methoxyphenyl)ethyl]-5-methyl-6-(1,3-oxazol-2-yl)-2,4-dioxo-1H,2H,3H,4H-thieno[2,3-d]pyrimidin-3-yl]-2-methylpropanoic acid]
< 100	< 100	–	–	Cc1c(-c2ncco2)sc2c1c(=O)n(C(C)(C)C(=O)O)c(=O)n2C[C@H](OC[C@@H](C)O)c1ccccc1 [I-179, 2-[1-[(2R)-2-[(2R)-2-hydroxypropoxy]-2-phenylethyl]-5-methyl-6-(1,3-oxazol-2-yl)-2,4-dioxo-1H,2H,3H,4H-thieno[2,3-d]pyrimidin-3-yl]-2-methylpropanoic acid]
< 100	< 1000	–	–	CCOC(=O)c1sc2c(c1C)c(=O)n(C(C)(C)C(=O)O)c(=O)n2CCc1ccccc1CC [I-100, 2-[6-(ethoxycarbonyl)-1-[2-(2-ethylphenyl)ethyl]-5-methyl-2,4-dioxo-1H,2H,3H,4H-thieno[2,3-d]pyrimidin-3-yl]-2-methylpropanoic acid]
< 1000	< 1000	–	–	Cc1c(-c2ncco2)sc2c1c(=O)n(C(C)(C)C(=O)O)c(=O)n2CC(Oc1ccccc1)c1ccccc1 (stereo in doubt) [I-143, 2-methyl-2-[5-methyl-6-(1,3-oxazol-2-yl)-2,4-dioxo-1-[(2S)-2-phenoxy-2-phenylethyl]-1H,2H,3H,4H-thieno[2,3-d]pyrimidin-3-yl]propanoic acid]
< 100	< 100	–	–	Cc1c(-c2ncco2)sc2c1c(=O)n(C(C)(C)C(N)=O)c(=O)n2C[C@H](OC1CCOCC1)c1ccccc1OC(F)F [I-274, 2-[1-[(2R)-2-[2-(difluoromethoxy)phenyl]-2-(oxan-4-yloxy)ethyl]-5-methyl-6-(1,3-oxazol-2-yl)-2,4-dioxo-1H,2H,3H,4H-thieno[2,3-d]pyrimidin-3-yl]-2-methylpropanamide]
< 1000	< 1000	–	–	Cc1c(-c2ncco2)sc2c1c(=O)n(C(C)(C)C(N)=O)c(=O)n2C[C@H](OC(C)C)c1ccccc1 [I-121, 2-methyl-2-[5-methyl-6-(1,3-oxazol-2-yl)-2,4-dioxo-1-[(2R)-2-phenyl-2-(propan-2-yloxy)ethyl]-1H,2H,3H,4H-thieno[2,3-d]pyrimidin-3-yl]propanamide]
